In assay [1] the test system is Influenza A virus (hanfang359/95). Description: Determination of anti-influenza virus activity (CPE in MDCK cells). In kind it is cell-based. Particulars: for IC50: Influenza A virus, MDCK, 36 h; for anti-influenza virus activities compared with the lead compound cajanine: statement in words.
The next assay concerns Coxsackie virus B6. Briefly: Coxsackie virus activity assay (CPE in Vero cells). The assay is classed as cell-based. Particulars: Vero.
Another assay relates to HCV. Briefly: Anti-hepatitis C virus (HCV) activity assay (HCV RNA in Huh7.5 cells). The assay is classed as cell-based. Conditions: for EC50: Hepatitis C virus, Huh7.5, 72 h, read-out: HCV EC50; for anti-HCV viral activity: statement in words. On the procedure:
Inoculate Huh7.5 cells into 96-well plates to a density of 3×10^4 cells/cm^2, culture for 24h, infect the cells with 45 IU/cell HCV supernatant, meanwhile, add drug solutions or solvent control for treatment.

The test system of another assay is HIV-1 III B virus. Description: Anti-HIV activity assay (P24 antigen in MT-4 cells). In kind it is cell-based. Conditions: for IC50: Human immunodeficiency virus 1, MT4, 96 h, read-out: HIV IC50; for anti-HIV viral activity: statement in words.
In assay [2] the test system is PC12 cells. Briefly: Neuroprotective activity assay, serum-deprived injury to PC12 cells (MTT). In kind it is cell-based. Conditions: for viability at 10 µM: Rattus norvegicus, PC-12, 48 h, read-out: serum-deprived (surviving PC12 cells, MTT 570 nm); for protective effect on serum-deprived injury to PC12 cells: statement in words. The essentials:
(§1)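 PC12 cells on poly-lysine plated 24 h, then injured 48 h by serum-free DMEM or 4 μM rotenone with 10 μM test compound present during injury. Viability read by MTT (4 h), absorbance 570 nm.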

Assay [3] relates to PC12 cells. Briefly: Neuroprotective activity assay, rotenone injury to PC12 cells (MTT). The assay is classed as cell-based. Conditions: for viability at 10 µM: Rattus norvegicus, PC-12, 48 h, read-out: rotenone (surviving PC12 cells, MTT 570 nm); for protective effect on rotenone injury to PC12 cells: statement in words. The method in brief: as §1
The subject of another assay is ovariectomized rats. Briefly: Protective effect on bone osteoporosis in ovariectomized rats. The assay is classed as in vivo. Conditions: compared with raloxifene. From the text: The present invention also relates to anti-osteoporotic effect of said compounds. According to literature reports, pigeonpea stilbene-type compounds belong to phytoestrogens, the anti-osteoporosis effect of natural products has to do with their estrogen-like effects.

Where [4] appears, read: read-out: COX-B6 IC50, Vero cells, about 100TCID50, CPE, Reed-Muench.
Where [5] appears, read: 10 μM test compound, 48 h, Control 100.0 ± 9.2, Model 69.3 ± 4.1.
Where [6] appears, read: 10 μM test compound, 4 μM rotenone, 48 h, Control 100.0 ± 8.9, Model 73.2 ± 7.8.
Where [7] appears, read: Huh7.5 cells, 72 h, HCV RNA by RT-PCR, Reed-Muench.
The mark [8] stands for this setting: MT-4 cells, HIV-1 III B 100TCID50, 96 h, P24 antigen.

≈ marks a conversion by molar mass, not a printed value. Like-named read-outs stand apart in the source and are kept apart here.

On to `COc1cc(/C=C/c2ccccc2)c(C(=O)O)c(O)c1CC=C(C)C` [Compound 1, 2-hydroxy-3-isopentenyl-4-methoxy-6-[(E)-styryl]benzoic acid], for which the values for the 50% inhibitory concentration (IC50) (in assay [1]; in the assay with Coxsackie virus B6 (setting [4]); with HIV-1 III B virus) were 8.9 µg/mL (≈ 26.3 µM), 0.9 µg/mL (≈ 2.66 µM) and 0.27 µg/mL (≈ 0.798 µM), respectively. In the assay with HCV, the EC50 was found to be 1.21 µg/mL (≈ 3.58 µM). Besides, the “anti-HCV viral activity” value in the assay on HCV was “stronger anti-HIV, HCV viral activities”. The “anti-HIV viral activity” value in the assay with HIV-1 III B virus is listed as “stronger anti-HIV, HCV viral activities”. In addition, the figures for the viability at 10 µM with PC12 cells [2] (setting [5]) and with PC12 cells [3] (setting [6]) were 19.3 ± 1.6% and 72.3 ± 5.9%, respectively. In addition, in the assay with ovariectomized rats, the “in vivo anti-osteoporotic effect” value was “stronger in vivo anti-osteoporotic effect than clinical drug raloxifene”.

As for `COc1cc(/C=C/Cc2ccccc2)c(C(=O)O)c(O)c1CC=C(C)C` [Compound 1k, 2-hydroxy-3-isopentenyl-4-methoxy-6-[(E)-3′-phenyl-propen-1′-yl]benzoic acid], the figures for the IC50 (in assay [1]; in the assay with Coxsackie virus B6 (setting [4]); in the assay on HIV-1 III B virus (setting [8])) were 2.05 µg/mL (≈ 5.82 µM), over 2.06 µg/mL and 2.4 µg/mL (≈ 6.81 µM), respectively. Besides, the “anti-influenza virus activities compared with the lead compound cajanine” value in assay [1] is on record as “significantly stronger than the lead compound cajanine”. In the assay with HCV (setting [7]), the EC50 came to 1.03 µg/mL (≈ 2.92 µM). Besides, the viability at 10 µM is 19.2 ± 0.5% in the assay on PC12 cells [2] (setting [5]) and 60.4 ± 3.2% in the assay with PC12 cells [3] (setting [6]).

Consider `COc1cc(/C=C/c2ccccc2)c(C(=O)NC(N)=O)c(O)c1CC=C(C)C` [Compound 23a, N-aminoformyl-2-hydroxy-3-isopentenyl-4-methoxy-6-[(E)-styryl]benzamide], for which the figures for the IC50 (in assay [1]; in the assay with Coxsackie virus B6 (setting [4]); in the assay with HIV-1 III B virus (setting [8])) were 0.09 µg/mL (≈ 0.237 µM), 0.32 µg/mL (≈ 0.841 µM) and 0.74 µg/mL (≈ 1.95 µM), respectively. In assay [1], the “anti-influenza virus activities compared with the lead compound cajanine” value is on record as “significantly stronger than the lead compound cajanine”. Moreover, the EC50 in the assay with HCV (setting [7]) is 0.66 µg/mL (≈ 1.73 µM). Moreover, in the assay with HCV, the “anti-HCV viral activity” value was “stronger anti-HIV, HCV viral activities”. Besides, the “anti-HIV viral activity” value in the assay with HIV-1 III B virus is “stronger anti-HIV, HCV viral activities”. Also, the results for the viability at 10 µM in the assay on PC12 cells [2] (setting [5]) and in the assay with PC12 cells [3] (setting [6]) were 87.9 ± 5.8% and 85.6 ± 8.7%, respectively.

`COc1cc(/C=C/c2ccccc2)c(C(=O)O)c(OCN)c1CC=C(C)C` [Compound 26b, 2-aminomethoxy-3-isopentenyl-4-methoxy-6-[(E)-styryl]benzoic acid]: the IC50 in assay [1] was found to be 3.65 µg/mL (≈ 9.93 µM); in the assay on Coxsackie virus B6 (setting [4]) it was 3.54 µg/mL (≈ 9.63 µM); in the assay with HIV-1 III B virus (setting [8]), 7.83 µg/mL (≈ 21.3 µM). Besides, the EC50 in the assay on HCV (setting [7]) came to 5.66 µg/mL (≈ 15.4 µM). The viability at 10 µM came to 88.2 ± 4.1% in the assay with PC12 cells [2] (setting [5]) and 89.7 ± 6.3% in the assay on PC12 cells [3] (setting [6]).

As to `COc1cc(/C=C/c2ccccc2C)cc(O)c1CC=C(C)C` [Compound 10e, 2-isopentenyl-3-methoxy-5-[(E)-2′-methylstyryl]phenol], the IC50 in assay [1] turned out to be 1.92 µg/mL (≈ 6.23 µM); with Coxsackie virus B6 (setting [4]), 2.35 µg/mL (≈ 7.62 µM); with HIV-1 III B virus (setting [8]), 1.33 µg/mL (≈ 4.31 µM). In addition, the “anti-influenza virus activities compared with the lead compound cajanine” value in assay [1] is “significantly stronger than the lead compound cajanine”. The EC50 in the assay on HCV (setting [7]) amounted to 1.9 µg/mL (≈ 6.16 µM). The viability at 10 µM amounted to 65.3 ± 2.3% in the assay on PC12 cells [2] (setting [5]) and 70.2 ± 8.1% with PC12 cells [3] (setting [6]).

`COc1cc(/C=C/c2ccc(OC)c(O)c2)cc(OC)c1` [Compound 21d, 1,3-dimethoxy-5-[(E)-3-hydroxy-4-methoxy-styryl]benzene]: the IC50 in assay [1] worked out at 5.42 µg/mL (≈ 18.9 µM); in the assay with Coxsackie virus B6 (read-out: COX-B6 IC50), 7.98 µg/mL (≈ 27.9 µM); in the assay on HIV-1 III B virus (setting [8]), 0.63 µg/mL (≈ 2.2 µM). Besides, the EC50 in the assay on HCV (setting [7]) came to 3.37 µg/mL (≈ 11.8 µM). For the same compound, the results for the viability at 10 µM with PC12 cells [2] (setting [5]) and in the assay on PC12 cells [3] (setting [6]) were 88.7 ± 6.3% and 89.8 ± 2.8%, respectively. In the assay on PC12 cells [2], the “protective effect on serum-deprived injury to PC12 cells” value is reported as “the strongest activities”. Moreover, the “protective effect on rotenone injury to PC12 cells” value with PC12 cells [3] is on record as “the strongest activities”.

For `COC(=O)c1c(/C=C/c2c(OC)cccc2OC)cc(OC)c(CC=C(C)C)c1O` [Compound 8d, methyl 2-hydroxy-3-isopentenyl-4-methoxy-6-[(E)-2,6-dimethoxystyryl]-benzoate], the IC50 is over 6.17 µg/mL in assay [1], over 9.26 µg/mL in the assay on Coxsackie virus B6 (setting [4]) and 0.86 µg/mL (≈ 2.08 µM) in the assay with HIV-1 III B virus (setting [8]). The EC50 in the assay on HCV (setting [7]) was found to be 5.17 µg/mL (≈ 12.5 µM). Further, the viability at 10 µM came to 82 ± 3.2% with PC12 cells [2] (setting [5]) and 84.4 ± 3.6% with PC12 cells [3] (setting [6]). For the same compound, the “protective effect on serum-deprived injury to PC12 cells” value in the assay with PC12 cells [2] was “the strongest activities”. The “protective effect on rotenone injury to PC12 cells” value in the assay with PC12 cells [3] is “the strongest activities”.

Regarding `COc1cc(/C=C/c2ccc(F)cc2)cc(O)c1CC=C(C)C` [Compound 10a, 2-isopentenyl-3-methoxy-5-[(E)-(4′-fluorostyryl)]phenol], the values for the IC50 (in assay [1]; in the assay with Coxsackie virus B6 (read-out: COX-B6 IC50); with HIV-1 III B virus) were over 0.69 µg/mL, 6.32 µg/mL (≈ 20.2 µM) and 2.02 µg/mL (≈ 6.47 µM), respectively. In addition, the “anti-influenza virus activities compared with the lead compound cajanine” value in assay [1] is “significantly stronger than the lead compound cajanine”. Also, the EC50 in the assay on HCV is 1.6 µg/mL (≈ 5.12 µM). Moreover, the viability at 10 µM in the assay with PC12 cells [2] was determined as 78.2 ± 4.1%; in the assay on PC12 cells [3], 79.8 ± 5.6%.

Values taken from US9359298B2, “Cajanine structure analogous compound, preparation method and use” (INSTITUTE OF MEDICINAL BIOTECHNOLOGY, CHINESE ACADEMY OF …, priority 2011, dated 2016).
